# In BindingDB's records for doi:10.7270/Q2NC5ZRN (Burnham Center For Chemical Genomics, 2012):
# pIC50: −log10 of the molar value.
# Biological target: DNA (cytosine-5)-methyltransferase 1 (Homo sapiens, UniProt P26358)
# Assay: inhibition of DNA methylation by DNMT1 – biochemical, fluorescent molecular beacon, confirmation (AID 602386)
# Sequence of DNA (cytosine-5)-methyltransferase 1 (P26358 whole entry): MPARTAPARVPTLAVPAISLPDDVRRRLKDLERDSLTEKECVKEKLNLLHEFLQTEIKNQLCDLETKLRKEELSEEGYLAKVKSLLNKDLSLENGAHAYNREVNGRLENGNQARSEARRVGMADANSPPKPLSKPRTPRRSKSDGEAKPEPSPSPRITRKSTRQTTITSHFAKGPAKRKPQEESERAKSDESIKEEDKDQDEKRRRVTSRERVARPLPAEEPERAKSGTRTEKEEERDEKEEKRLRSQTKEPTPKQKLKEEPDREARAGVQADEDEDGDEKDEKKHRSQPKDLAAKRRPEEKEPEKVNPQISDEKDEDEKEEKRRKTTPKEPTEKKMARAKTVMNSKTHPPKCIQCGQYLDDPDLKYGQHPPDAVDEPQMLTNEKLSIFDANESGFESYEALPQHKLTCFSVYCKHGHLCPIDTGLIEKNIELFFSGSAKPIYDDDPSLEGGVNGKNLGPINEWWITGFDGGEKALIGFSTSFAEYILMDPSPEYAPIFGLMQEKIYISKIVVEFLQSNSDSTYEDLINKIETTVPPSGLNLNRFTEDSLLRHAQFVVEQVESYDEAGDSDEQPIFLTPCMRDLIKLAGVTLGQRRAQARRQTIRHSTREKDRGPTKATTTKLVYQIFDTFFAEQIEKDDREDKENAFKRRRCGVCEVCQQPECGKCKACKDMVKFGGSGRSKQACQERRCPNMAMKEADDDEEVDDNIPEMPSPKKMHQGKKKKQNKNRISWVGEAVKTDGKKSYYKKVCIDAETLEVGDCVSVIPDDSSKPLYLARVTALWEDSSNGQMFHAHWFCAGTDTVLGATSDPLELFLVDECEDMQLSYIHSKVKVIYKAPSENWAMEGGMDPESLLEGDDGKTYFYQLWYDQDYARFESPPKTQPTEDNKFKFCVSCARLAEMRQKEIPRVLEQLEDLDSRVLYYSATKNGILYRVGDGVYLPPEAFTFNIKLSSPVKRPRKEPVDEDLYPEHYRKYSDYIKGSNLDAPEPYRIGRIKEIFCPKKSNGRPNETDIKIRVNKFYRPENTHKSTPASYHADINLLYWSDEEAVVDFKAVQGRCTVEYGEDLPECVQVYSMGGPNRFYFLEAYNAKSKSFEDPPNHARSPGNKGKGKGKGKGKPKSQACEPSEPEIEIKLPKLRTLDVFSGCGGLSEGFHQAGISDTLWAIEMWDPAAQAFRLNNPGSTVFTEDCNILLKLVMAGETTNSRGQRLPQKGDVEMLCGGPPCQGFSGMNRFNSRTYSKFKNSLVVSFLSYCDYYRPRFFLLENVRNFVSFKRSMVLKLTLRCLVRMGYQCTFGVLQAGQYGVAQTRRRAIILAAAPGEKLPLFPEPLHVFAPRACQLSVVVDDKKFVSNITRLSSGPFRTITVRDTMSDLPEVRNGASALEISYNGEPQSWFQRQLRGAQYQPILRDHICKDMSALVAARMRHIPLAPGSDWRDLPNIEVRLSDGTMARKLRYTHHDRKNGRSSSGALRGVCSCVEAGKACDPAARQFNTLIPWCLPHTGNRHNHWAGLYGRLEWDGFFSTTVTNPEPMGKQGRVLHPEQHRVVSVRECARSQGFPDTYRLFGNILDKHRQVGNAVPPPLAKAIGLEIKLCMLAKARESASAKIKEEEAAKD
row,pIC50,Structure (SMILES)
1,5.49,CSc1ccc(CN=Nc2ccc(S(=O)(=O)Nc3ccccc3C(=O)O)cc2[N+](=O)[O-])cc1 [MLS002245633]
2,5.08,Cc1[nH]n(-c2ccccc2)c(=O)c1C=C1NC(=S)NC1=O [5-methyl-4-[(Z)-(5-oxo-2-sulfanylideneimidazolidin-4-ylidene)methyl]-2-phenyl-4H-pyrazol-3-one]
3,5.27,C=CCOc1ccc(CN=Nc2ccc(S(=O)(=O)Nc3ccccc3C(=O)O)cc2[N+](=O)[O-])cc1OC [2-[[4-[2-[(3-methoxy-4-prop-2-enoxy-phenyl)methylidene]hydrazinyl]-3-nitro-phenyl]sulfonylamino]benzoic acid]
4,5.24,CCOc1ccc(CN=Nc2ccc(S(=O)(=O)Nc3ccccc3C(=O)O)cc2[N+](=O)[O-])cc1
5,5.07,O=C(CSc1nc(O)cc(=O)[nH]1)Nc1ccccc1[N+](=O)[O-] [SMR000620617]
6,4.39,"COc1cc(NS(=O)(=O)c2ccc(NC(=S)NC(=O)c3sc4ccccc4c3Cl)cc2)nc(OC)n1 [3-chloranyl-N-[[4-[(2,6-dimethoxypyrimidin-4-yl)sulfamoyl]phenyl]carbamothioyl]-1-benzothiophene-2-carboxamide]"
7,4.71,O=C1N=c2ccccc2=C1NNc1ccc(F)cc1
8,5.49,O=C(/C=C/c1ccco1)NCC(=O)NNC1=c2ccccc2=NC1=O [MLS001075666]
9,5.36,CCOC1=CC(=Cc2c(-c3ccccc3)[nH]n(-c3nc(-c4ccc(Br)cc4)cs3)c2=O)C=CC1=O
10,5.12,NS(=O)(=O)c1ccc(NN=C2C=CC(=O)NC2=O)cc1 [SMR000528591]

# Further lines, the molecule ahead of its results:
row,Structure (SMILES),pIC50
1,COc1ccc(OC)c(-n2c(O)c3o[nH]c(-c4ccccc4Cl)c-3c2=O)c1 [SMR000046218],5.36
2,NC(=NNC=c1ccc(=C2C=CC(=O)C(C(=O)O)=C2)o1)N[N+](=O)[O-] [5-(5-{2-[amino(nitroimino)methyl]carbonohydrazonoyl}-2-furyl)-2-hydroxybenzoic acid],5.40
3,CCCCn1c(NC(=S)Nc2ccccc2)nc2ccccc21,5.99
4,C=c1[nH]n(-c2cccc(C(=O)O)c2)c(=O)c1=CC=Cc1ccco1 [SMR000113614],5.93
5,Cc1ccc(C(=O)N[n+]2cc(O)[c-](-c3nc(-c4cccc([N+](=O)[O-])c4)cs3)c2N)cc1 [MLS000391743],< 4.00
6,"CC=CC=CC(=O)C1C(=O)[C@]2(C)C(=O)C(C)(O)[C@H]1[C@H]([C@]1(C)OC(=O)C(C)C1=O)[C@H]2C(=O)C=CC=CC (stereo partly drawn) [(1S,4R,6E,7S,8R)-8-[(2E,4E)-hexa-2,4-dienoyl]-2-hydroxy-7-[(2S)-5-hydroxy-2,4-dimethyl-3-oxofuran-2-yl]-6-[(2E,4E)-1-hydroxyhexa-2,4-dienylidene]-2,4-dimethylbicyclo[2.2.2]octane-3,5-dione]",5.28
7,COc1ccccc1N1CC=[N+](N[CH-]c2ccc(Cl)c([N+](=O)[O-])c2)CC1 [(E)-1-(4-chloro-3-nitrophenyl)-N-[4-(2-methoxyphenyl)piperazin-1-yl]methanimine],< 4.00
8,COc1ccc(C=c2c(=CSc3ccc(Cl)cc3)[nH]n(-c3nc4ccccc4s3)c2=O)cc1 [SMR000193462],5.54
9,CCN(CC)CCOc1ccc2c(c1)C(N=O)c1cc(OCCN(CC)CC)ccc1-2 [MLS000518859],< 4.00
